# No end group written: not given here.
# Key:
# TD–AP2 interactions = test: GST-TD (1–580) pulldown of AP2 from mouse brain extract; type: biochemical; details: increasing peptide concentrations, overnight at 4°C, Western blot, three independent runs (Fig. 9 B, C)
# Description: A mouse brain was homogenized using a Dounce tissue grinder (Sartorius) in 1 ml MES buffer (100 mM Mes, 1 mM EGTA, 0.5 mM MgCl2, and 0.1 mM PMSF, pH 6.4). After spinning at 5,000 g and 4°C for 3 min, the supernatant was ultracentrifuged at 110,000 g for 60 min. The resulting pellet was then resuspended in extraction buffer (3 vol of 1 M Tris, pH 8, 1 vol Mes buffer, with added PMSF and DTT to 0.1 mM each) for 30 min at room temperature. The resuspended solution was ultracentrifuged at 110,000 g for 60 min to collect supernatant containing released coat proteins. The brain extract buffer was exchanged to pulldown reaction buffer (50 mM Tris, 150 mM NaCl, and 0.1 mM EGTA, pH 7.5) using zeba spin desalting columns (Thermo Fisher Scientific).
# In the pulldown assay, 75 µg GST-TD (residues 1–580) in reaction buffer was mixed with coat protein fractions (10% of total extract from a mouse brain) and the indicated concentrations of peptides. The mixture was incubated with 50 µl of a 50% slurry of glutathione Sepharose 4B beads (ABT) and left to rotate overnight at 4°C. Subsequently, beads were collected by spinning down at 1,000 g for 2 min and washed twice with reaction buffer. The beads were resuspended in Laemmli sample buffer and denatured at 95°C before running on 7.5% SDS-PAGE and Western blotting.
# SNX9 = SNX9 (Homo sapiens, UniProt Q9Y5X1); test: Isothermal titration calorimetry with SNX9; type: binding; details: ITC
# SNX9, sequence (Q9Y5X1 whole entry, species assumed): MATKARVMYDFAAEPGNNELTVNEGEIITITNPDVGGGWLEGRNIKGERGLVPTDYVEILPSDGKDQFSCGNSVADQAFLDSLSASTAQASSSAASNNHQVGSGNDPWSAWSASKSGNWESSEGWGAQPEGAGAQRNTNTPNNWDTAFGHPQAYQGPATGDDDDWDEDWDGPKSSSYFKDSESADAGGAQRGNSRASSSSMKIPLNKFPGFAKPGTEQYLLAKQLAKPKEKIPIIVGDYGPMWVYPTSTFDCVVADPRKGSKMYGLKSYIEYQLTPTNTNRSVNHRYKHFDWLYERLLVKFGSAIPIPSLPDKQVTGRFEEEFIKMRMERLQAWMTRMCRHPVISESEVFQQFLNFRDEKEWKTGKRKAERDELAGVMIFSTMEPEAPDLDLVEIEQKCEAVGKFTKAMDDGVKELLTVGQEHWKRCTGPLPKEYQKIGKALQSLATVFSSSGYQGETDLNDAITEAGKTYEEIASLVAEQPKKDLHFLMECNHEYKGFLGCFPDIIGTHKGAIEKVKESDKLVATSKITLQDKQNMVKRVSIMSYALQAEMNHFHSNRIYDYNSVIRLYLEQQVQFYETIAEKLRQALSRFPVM
# Text: GUSSI was further used to output the figures presented.
# [1] = system: TfnR uptake via CME in ARPE/HPV cells; test: TfnR uptake (in-cell ELISA) after peptide preincubation; type: cell-based
# Description: Peptides encoding the TAT sequence (YGRKKRRQRRR) followed by 10 amino acid sequences covering the four reported binding sites on the clathrin terminal domain (Fig. 7 A) were synthesized by GenScript (Piscataway, NJ) with >95% purity. Peptides were dissolved in dH2O and further diluted in PBS4+ (1× PBS buffer plus 0.2% BSA, 1 mM CaCl2, 1 mM MgCl2, and 5 mM D-glucose) or cell culture medium (for imaging) when applied to cells. Peptide solutions were stored at −20°C.
# Internalization of TfnR, CD44, CD59, and Biotin-Tfn was quantified by in-cell ELISA following established protocols ([Conner and Schmid, 2003]; [Srinivasan et al., 2018]). Cells were seeded in 96-well plates (Costar) at 60–70% confluence and grown overnight. Before the assay, cells were starved for 30 min in PBS4+ at 37°C or treated with peptides in PBS4+ at 37°C for the indicated times. After starvation, cells were moved to 4°C, and culture medium was replaced with cold PBS4+ containing 5 µg/ml HTR-D65 (anti-TfnR mAb; [Schmid and Smythe, 1991]), anti-human CD44 or anti-human CD59 (BD PharMingen) or 5 µg/ml Biotin-Tfn (Sigma-Aldrich). For single-round assays, the above reagents were kept with cells for 20 min at 4°C and then washed out before uptake assay. For multiround assays, the above reagents were kept with cells throughout the uptake process. In parallel, some cells were kept at 4°C for the measurement of surface-bound ligands and blank controls, and some were incubated in a 37°C water bath for the indicated times. Acid wash (0.2 M acetic acid and 0.2 M NaCl, pH 2.3) was used to remove surface-bound antibodies, followed by washing with cold PBS. All were fixed with 4% PFA (Electron Microscopy Sciences) in PBS for 30 min at 37°C. 0.1% Triton X-100 was added for 6.5 min to permeabilize cells, followed by addition of blocking buffer. HTR-D65–, CD44-, and CD59-treated cells were blocked with Q-PBS (PBS, 2% BSA, 0.1% lysine, and 0.01% saponin, pH 7.4), and Biotin-Tfn–treated cells were blocked with 2% casein. Surface-bound and internalized HTR-D65, CD44, and CD59 were probed with goat anti-mouse antibody conjugated with HRP (Sigma-Aldrich), and Biotin-Tfn was probed with Streptavidin-POD conjugate (Sigma-Aldrich). Color was developed using o-phenylenediamine dihydrochloride (OPD) solution (Sigma-Aldrich), and absorbance was read at 490 nm (Biotek Synergy H1 Hybrid Reader). Cell number variation among wells was accounted for by bicinchoninic acid assay reading at 562 nm.
# [2] = molecular target: hinge + appendage domain of the AP2 β2 subunit (β2-HAD) (UniProt P63010); details: read-out: binding affinity KD to β2-HAD; ITC, 20°C, pH 7.4; 1.2 mM Wbox2 injected into 200 µM β2-HAD; A+B <–> AB model; binds a fraction of purified β2-HAD
# hinge + appendage domain of the AP2 β2 subunit (β2-HAD), sequence (P63010 2-937): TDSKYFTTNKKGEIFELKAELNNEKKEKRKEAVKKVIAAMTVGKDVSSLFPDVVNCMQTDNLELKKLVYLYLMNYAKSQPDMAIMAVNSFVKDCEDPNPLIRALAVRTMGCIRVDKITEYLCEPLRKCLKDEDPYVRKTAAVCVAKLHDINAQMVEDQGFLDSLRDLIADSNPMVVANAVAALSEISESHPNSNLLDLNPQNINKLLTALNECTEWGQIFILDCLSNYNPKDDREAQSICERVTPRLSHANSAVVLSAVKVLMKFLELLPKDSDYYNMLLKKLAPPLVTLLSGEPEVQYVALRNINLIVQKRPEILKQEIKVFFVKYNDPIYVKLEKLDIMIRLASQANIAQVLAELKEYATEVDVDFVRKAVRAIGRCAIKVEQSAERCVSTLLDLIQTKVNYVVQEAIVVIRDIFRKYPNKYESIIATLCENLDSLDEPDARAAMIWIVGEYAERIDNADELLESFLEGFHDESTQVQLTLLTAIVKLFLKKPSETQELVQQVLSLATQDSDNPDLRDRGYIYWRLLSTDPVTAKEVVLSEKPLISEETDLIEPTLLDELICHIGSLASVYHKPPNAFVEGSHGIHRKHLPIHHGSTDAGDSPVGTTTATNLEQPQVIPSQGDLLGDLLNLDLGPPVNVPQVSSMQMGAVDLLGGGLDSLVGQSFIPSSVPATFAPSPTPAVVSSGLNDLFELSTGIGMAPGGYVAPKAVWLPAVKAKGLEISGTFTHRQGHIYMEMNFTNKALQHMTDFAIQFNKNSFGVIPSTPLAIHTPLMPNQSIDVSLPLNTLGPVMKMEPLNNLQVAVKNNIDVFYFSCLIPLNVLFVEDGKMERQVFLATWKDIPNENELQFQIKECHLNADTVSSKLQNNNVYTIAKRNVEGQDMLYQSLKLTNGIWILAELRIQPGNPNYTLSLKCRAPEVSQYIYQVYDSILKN
# Description: Binding of TAT, Wbox2_mutant, and Wbox2 to SNX9 and β2-HAD was investigated by ITC using a MicroCal iTC200 (GE Healthcare Life Sciences). Measurements were performed at 20°C in reaction buffer: 20 mM Hepes, 150 mM NaCl, and 1 mM TCEP, pH 7.4. Protein and peptide concentrations were determined by absorbance at 280 and 205 nm, respectively. The peptides were injected from a syringe in 21 steps up to a molar excess over the protein concentration. Titration curves were executed with NITPIC and fitted with SEDPHAT.
# cell viability = test: Cell viability, Cell Counting Kit 8 (CCK-8); type: cell-based; details: for cytotoxicity IC50 relative to concentration needed to inhibit CME: cytotoxicity vs CME inhibition
# cytotoxicity = system: cytotoxicity; set-up: method as in Rosselli-Murai et al., 2018; details: ref Rosselli-Murai et al., 2018; cited from earlier work
substance,measurement,setting,value
"YGRKKRRQRRR [TAT, arginine-rich TAT peptide, negative control, reference compound]",inhibition of AP2 pulldown by GST-TD,TD–AP2 interactions,much weaker inhibition
same,interaction with SNX9 compared with Wbox2,SNX9; 1.8 mM peptide injected into 50 µM SNX9,much weaker interactions
same,"inhibitory activity on TfnR uptake, concentration curve","[1]; 60-min preincubation at 37°C (Fig. 7 F), TAT at concentrations <100 µM",did not inhibit
YGRKKRRQRRRGFSCQIIGIS [Wbox2],Kd,[2],37.5 µM
same,IC50 for cytotoxicity,"cell viability; CCK-8, n = 4 replicates (Fig. S5)",> 40 µM
same,effect on cell viability,"cell viability; concentrations ≤30 µM, CCK-8, n = 4 replicates (Fig. S5)",no effect
same,cytotoxicity IC50 relative to concentration needed to inhibit CME,cell viability,10 fold
same,cytotoxicity IC50 relative to concentration needed to inhibit CME,cell viability; listed as CMEpi,~ 10 fold
same,Kd,"SNX9; 20°C, 20 mM Hepes, 150 mM NaCl, 1 mM TCEP, pH 7.4, 1.8 mM Wbox2 injected into 50 µM SNX9, two nonsymmetric sites model, read-out: binding affinity KD1, first Wbox2 binding site on SNX9",4 µM
same,IC50,"[1]; 60-min preincubation with peptide at 37°C, concentration curves, n = 4 replicates (Fig. 7 F), read-out: IC50 for inhibition of TfnR uptake",~3 µM
pitstop,cytotoxic concentration relative to CME-inhibitory concentration,cytotoxicity,cytotoxic at concentrations only approximately twofold higher

# Source: article PMC7480105, “Wbox2: A clathrin terminal domain–derived peptide inhibitor of clathrin-mediated endocytosis” (The Journal of Cell Biology, 2020)
